Like-named read-outs stand apart in the source and are kept apart here.
Tests used:
786-O = assay: cells; parameters: mitochondrial toxicity in 786-O renal carcinoma cells; conditions: Homo sapiens, 786-0; mitochondrial toxicity
[1] = tested on: T. b. brucei Lister 427 bloodstream forms; assay: In vitro activity against T. brucei (HTS SYBR Green I growth inhibition assay); assay type: cell-based, Trypanosoma brucei brucei; conditions: standard deviation within ±10% of the value; for inhibition at 50 µM: read-out: % Inhibition T. brucei at 50 μM
hERG = target: T1, hERG (Homo sapiens, UniProt Q12809); parameters: hERG inhibition liability assay
T1 construct: gene KCNH2
T1 sequence (Q12809 whole entry): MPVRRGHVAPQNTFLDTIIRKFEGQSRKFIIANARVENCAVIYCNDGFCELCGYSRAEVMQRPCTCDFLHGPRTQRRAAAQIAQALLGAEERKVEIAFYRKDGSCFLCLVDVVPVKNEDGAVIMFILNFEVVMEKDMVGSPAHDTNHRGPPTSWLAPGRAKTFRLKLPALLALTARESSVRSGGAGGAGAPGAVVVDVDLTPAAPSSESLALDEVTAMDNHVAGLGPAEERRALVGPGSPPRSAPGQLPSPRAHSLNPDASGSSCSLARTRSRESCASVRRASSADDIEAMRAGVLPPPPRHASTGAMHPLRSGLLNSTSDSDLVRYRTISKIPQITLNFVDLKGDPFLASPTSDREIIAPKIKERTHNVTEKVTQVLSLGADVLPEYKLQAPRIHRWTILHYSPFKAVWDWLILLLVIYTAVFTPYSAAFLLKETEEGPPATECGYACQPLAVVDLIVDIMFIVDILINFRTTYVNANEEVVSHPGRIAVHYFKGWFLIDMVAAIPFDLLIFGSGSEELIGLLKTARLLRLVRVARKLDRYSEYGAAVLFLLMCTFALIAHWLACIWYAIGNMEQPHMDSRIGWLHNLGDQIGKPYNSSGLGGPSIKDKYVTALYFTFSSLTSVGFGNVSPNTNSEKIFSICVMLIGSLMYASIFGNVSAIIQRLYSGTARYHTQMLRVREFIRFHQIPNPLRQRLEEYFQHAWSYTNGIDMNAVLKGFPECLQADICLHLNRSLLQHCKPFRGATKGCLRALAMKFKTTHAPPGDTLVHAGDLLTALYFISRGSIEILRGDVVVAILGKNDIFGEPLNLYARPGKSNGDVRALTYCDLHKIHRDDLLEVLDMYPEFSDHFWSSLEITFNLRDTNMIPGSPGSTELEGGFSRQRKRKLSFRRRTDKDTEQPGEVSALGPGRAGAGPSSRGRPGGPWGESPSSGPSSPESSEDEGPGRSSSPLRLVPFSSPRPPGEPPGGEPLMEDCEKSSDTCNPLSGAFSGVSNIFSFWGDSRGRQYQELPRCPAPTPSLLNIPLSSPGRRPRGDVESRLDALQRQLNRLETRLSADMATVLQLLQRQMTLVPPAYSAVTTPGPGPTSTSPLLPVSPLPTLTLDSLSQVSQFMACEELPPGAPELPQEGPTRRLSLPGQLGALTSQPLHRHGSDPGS

TbPTR1 = target: T2, TbPTR1 (Trypanosoma brucei brucei, UniProt O76290); assay: biochemical; conditions: for inhibition at 50 µM: read-out: % Inhibition TbPTR1 at 50 μM; for IC50: dose-response 0.001-100 μM
T2 construct: made in house
T2 sequence (O76290 1-268): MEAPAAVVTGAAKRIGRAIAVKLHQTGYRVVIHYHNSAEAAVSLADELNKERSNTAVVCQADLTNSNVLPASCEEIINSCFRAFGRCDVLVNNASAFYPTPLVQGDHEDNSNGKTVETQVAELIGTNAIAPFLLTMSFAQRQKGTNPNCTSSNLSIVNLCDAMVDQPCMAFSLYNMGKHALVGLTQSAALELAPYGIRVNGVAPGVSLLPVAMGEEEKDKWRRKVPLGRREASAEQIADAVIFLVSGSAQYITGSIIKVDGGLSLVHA

CYP3A4 = CYP3A4 (Homo sapiens, UniProt P08684); assay: in vitro; parameters: cytochrome P450 isoform inhibition liability assay
Chain of CYP3A4 (P08684 whole entry, canonical isoform): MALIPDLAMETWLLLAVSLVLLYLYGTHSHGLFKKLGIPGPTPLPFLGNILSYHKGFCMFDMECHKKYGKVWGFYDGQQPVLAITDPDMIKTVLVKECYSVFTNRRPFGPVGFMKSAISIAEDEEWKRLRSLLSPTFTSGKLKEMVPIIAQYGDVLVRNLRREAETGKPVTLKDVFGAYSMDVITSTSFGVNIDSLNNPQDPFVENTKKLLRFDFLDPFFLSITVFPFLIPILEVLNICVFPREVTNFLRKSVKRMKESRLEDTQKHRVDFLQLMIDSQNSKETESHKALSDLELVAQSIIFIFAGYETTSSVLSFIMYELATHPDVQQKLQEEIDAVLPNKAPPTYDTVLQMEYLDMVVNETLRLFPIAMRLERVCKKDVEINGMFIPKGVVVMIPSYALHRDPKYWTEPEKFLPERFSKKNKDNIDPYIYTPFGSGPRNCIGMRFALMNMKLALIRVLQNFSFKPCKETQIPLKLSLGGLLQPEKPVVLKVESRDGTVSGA

CYP2C19 = CYP2C19 (Homo sapiens, UniProt P33261); assay: in vitro; parameters: cytochrome P450 isoform inhibition liability assay
Chain of CYP2C19 (P33261 whole entry, canonical isoform): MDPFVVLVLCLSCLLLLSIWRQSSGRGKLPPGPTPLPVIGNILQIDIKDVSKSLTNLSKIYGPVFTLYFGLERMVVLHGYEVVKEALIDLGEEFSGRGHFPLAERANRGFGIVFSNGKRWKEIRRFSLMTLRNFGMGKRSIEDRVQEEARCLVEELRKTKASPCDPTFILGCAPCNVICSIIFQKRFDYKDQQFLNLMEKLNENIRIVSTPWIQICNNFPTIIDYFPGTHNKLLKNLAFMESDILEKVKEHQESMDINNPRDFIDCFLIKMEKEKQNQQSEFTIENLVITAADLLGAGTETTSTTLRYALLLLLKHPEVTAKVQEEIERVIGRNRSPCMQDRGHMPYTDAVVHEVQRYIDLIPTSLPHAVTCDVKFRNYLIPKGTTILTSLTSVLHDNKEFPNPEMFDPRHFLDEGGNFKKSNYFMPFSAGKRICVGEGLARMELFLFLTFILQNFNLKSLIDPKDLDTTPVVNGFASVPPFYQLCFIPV

CYP2D6 = CYP2D6 (Homo sapiens, UniProt P10635); assay: in vitro; parameters: cytochrome P450 isoform inhibition liability assay
Chain of CYP2D6 (P10635 whole entry, canonical isoform): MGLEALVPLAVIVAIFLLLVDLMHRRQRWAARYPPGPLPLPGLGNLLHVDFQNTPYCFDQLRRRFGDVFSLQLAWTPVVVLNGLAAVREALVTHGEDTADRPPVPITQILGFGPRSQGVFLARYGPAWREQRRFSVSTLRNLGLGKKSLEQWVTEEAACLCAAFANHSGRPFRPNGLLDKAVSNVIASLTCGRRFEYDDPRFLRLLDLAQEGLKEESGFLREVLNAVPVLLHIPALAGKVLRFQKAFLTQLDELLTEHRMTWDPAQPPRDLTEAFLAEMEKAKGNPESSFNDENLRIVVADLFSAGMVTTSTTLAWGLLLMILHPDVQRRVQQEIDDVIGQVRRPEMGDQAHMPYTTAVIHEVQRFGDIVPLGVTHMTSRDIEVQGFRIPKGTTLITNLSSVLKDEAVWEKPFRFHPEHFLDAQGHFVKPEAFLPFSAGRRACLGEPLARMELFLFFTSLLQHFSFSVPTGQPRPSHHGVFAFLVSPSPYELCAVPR

CYP1A2 = target: T3, CYP1A2 (Homo sapiens, UniProt P05177); assay: in vitro; parameters: cytochrome P450 isoform inhibition liability assay
T3 sequence (P05177 1-516): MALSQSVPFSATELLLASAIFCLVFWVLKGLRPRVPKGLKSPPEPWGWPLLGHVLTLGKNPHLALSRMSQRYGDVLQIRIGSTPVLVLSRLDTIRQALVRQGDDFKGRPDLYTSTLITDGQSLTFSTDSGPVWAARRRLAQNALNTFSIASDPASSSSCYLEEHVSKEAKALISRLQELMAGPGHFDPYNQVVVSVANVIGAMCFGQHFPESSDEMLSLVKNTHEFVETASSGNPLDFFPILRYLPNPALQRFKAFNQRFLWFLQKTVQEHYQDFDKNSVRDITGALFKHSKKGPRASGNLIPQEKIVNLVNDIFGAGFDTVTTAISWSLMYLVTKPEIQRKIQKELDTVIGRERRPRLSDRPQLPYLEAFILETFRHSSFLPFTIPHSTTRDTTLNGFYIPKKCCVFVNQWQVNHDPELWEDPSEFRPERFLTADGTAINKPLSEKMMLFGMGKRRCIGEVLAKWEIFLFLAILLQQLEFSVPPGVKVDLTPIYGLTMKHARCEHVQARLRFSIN

CYP2C9 = CYP2C9 (Homo sapiens, UniProt P11712); assay: in vitro; parameters: cytochrome P450 isoform inhibition liability assay
Chain of CYP2C9 (P11712 whole entry, canonical isoform): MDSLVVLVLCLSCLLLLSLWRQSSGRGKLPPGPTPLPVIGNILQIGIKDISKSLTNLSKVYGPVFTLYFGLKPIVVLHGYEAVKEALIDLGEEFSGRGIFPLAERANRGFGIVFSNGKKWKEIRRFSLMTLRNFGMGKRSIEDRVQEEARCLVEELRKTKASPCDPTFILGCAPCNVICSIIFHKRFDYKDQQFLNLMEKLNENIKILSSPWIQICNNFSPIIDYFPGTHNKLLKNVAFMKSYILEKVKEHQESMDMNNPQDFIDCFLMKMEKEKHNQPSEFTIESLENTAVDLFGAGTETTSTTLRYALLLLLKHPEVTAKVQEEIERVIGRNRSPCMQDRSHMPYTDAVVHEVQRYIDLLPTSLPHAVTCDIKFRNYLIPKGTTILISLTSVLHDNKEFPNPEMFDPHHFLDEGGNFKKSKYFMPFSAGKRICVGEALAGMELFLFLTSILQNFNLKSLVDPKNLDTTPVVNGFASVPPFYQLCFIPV

hDHFR = target: T4, hDHFR (Homo sapiens, UniProt P00374); assay: biochemical; parameters: human DHFR enzyme inhibition
T4 construct: gene DHFR
T4 sequence (P00374 1-187): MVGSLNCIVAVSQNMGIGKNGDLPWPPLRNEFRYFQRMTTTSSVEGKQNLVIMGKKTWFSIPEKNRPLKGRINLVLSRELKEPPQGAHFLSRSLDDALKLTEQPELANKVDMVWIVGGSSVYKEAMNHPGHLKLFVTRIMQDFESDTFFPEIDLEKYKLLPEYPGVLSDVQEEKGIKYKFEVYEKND
Procedure: Figure 10 Summary heat map of the in vitro assays to determine possible liability issues for all synthesized compounds. Assays were performed to assess inhibition of hERG and five CYP isoforms (1A2, 2C9, 2C19, 2D6, and 3A4), growth inhibition of A549 and W1-38 cell lines, and mitochondrial toxicity at 10 μM. The hDHFR inhibition was determined at 100 μM. The data, expressed as percentage values, were organized by adopting a color code for rapid and intuitive visualization. The ideal compound should have all tiles blue, indicating a safe toxicological profile for progressing into the development pipeline. The cells are colored from blue (100% of cell growth at the tested concentration) to red (0% of cell growth at the tested concentration) for A549 and W1-38 and from blue (0% of inhibitory activity at the tested concentration) to red (100% of inhibitory activity at the tested concentration) for CYP isoforms, hERG, hDHFR, and mitochondrial toxicity.

in vitro [2] = assay: in vitro; parameters: cytotoxicity, per cent cell growth of WI-38 fibroblasts; conditions: human, wi-38 cells; read-out: % cell growth W1-38 at 10uM
in vitro [3] = assay: in vitro; parameters: cytotoxicity, per cent cell growth of A549 cells; conditions: human, a549 cells; read-out: % cell growth A549 at 10uM

SMILES	inhibition at 10 µM (786-O)	inhibition at 50 µM ([1]; Trypanosoma brucei, 50 μM)	inhibition at 10 µM (hERG)	inhibition at 50 µM (TbPTR1; 50 μM compound)	inhibition at 10 µM (CYP3A4)	inhibition at 10 µM (CYP2C19)	inhibition at 10 µM (CYP2D6)	inhibition at 10 µM (CYP1A2)	inhibition at 10 µM (CYP2C9)	inhibition at 25 µM (hDHFR; 25 uM)	viability at 10 µM (in vitro [2])	viability at 10 µM (in vitro [3])	inhibition at 10 µM (hDHFR)	IC50 (TbPTR1)	inhibition at 100 µM (hDHFR)	% Inhibition T. brucei at 50 μM ([1]; 50 μM)	EC50 ([1]; Trypanosoma brucei, read-out: EC50 T. brucei)	% Inhibition TbPTR1 at 50 μM (TbPTR1; 50 μM compound)
Nc1nnc(-c2cccc(-c3ccccc3)c2)s1 [2c]	0%	14.4%	83.7 ± 2.5%	25.2 ± 1.4%	59.5 ± 3.7%	65.1 ± 6.8%	48.2 ± 2.3%	101 ± 1.4%	24.1 ± 0.4%	23%	87.2 ± 13.8%	115 ± 5.3%						
Nc1nnc(-c2ccc(-c3nnc(N)s3)c(N)c2)s1 [1o]	-6.1 ± 4.3%	1.6%	-1.9 ± 4.9%	23.4 ± 0.1%	-0.7 ± 4.4%	-28.3 ± 16%	-38 ± 5.7%	9.5 ± 4.2%	-4.2 ± 4.2%		103 ± 1.8%	118 ± 9.4%	12%					
Nc1nnc(NCc2ccc(Cl)c(Cl)c2)s1 [4e]	3.6 ± 8.5%	< 0%	75.6 ± 4.4%	48.5 ± 2.1%	27.4 ± 6.8%	36.8 ± 0.9%	99 ± 0.6%	29.1 ± 3.4%	17.6 ± 0.9%		68.5 ± 18.8%	106 ± 2.7%		31 µM	24%			
Nc1nnc(-c2cc(O)c(O)c(O)c2)s1 [1f, 3′,4′,5′-trihydroxy-phenyl-1,3,4-thiadiazole]	-9.6 ± 7.9%		3.3 ± 2.2%	44.9 ± 0.9%	67.7 ± 3.1%	67.4 ± 7.3%	-6 ± 7.3%	71.4 ± 6.9%	38.2 ± 5.4%		111 ± 12.9%	118 ± 3.1%		41 µM	31%	100.0%	1 µM	did not show inhibition
Nc1nnc(-c2cccc(-c3ccc4c(c3)OCO4)c2)s1 [2g]	-2.6 ± 13.7%	10.4%	27.9 ± 5.2%	4 ± 0.4%	28.2 ± 5%	34.3 ± 3.7%	27 ± 2.36%	97.8 ± 1%	28.7 ± 2.2%		130 ± 14.1%	116 ± 8.3%	12%					
COc1cccc(OC)c1-c1nnc(N)s1 [1g]	-3.9 ± 2%	4.2%	4.3 ± 2%	14.1 ± 1.2%	13 ± 6.4%	-30.6 ± 12.9%	-30.5 ± 5.6%	8.9 ± 0.3%	-5.6 ± 1.3%		80.3 ± 6.8%	149.9 ± 0.3%			12%			

— article PMC5623949, “Exploiting the 2-Amino-1,3,4-thiadiazole Scaffold To Inhibit Trypanosoma brucei Pteridine Reductase in Support of Early-Stage Drug Discovery” (ACS Omega, 2017)
